{"source": "paper PMC7377239", "about": "“Cardiovascular Effects of Polychlorinated Biphenyls and Their Major Metabolites” (Environmental Health Perspectives, 2020)", "tested_on": "iCell cardiomyocytes (human iPSC-derived cardiomyocytes)", "assay": "High-content imaging of cytotoxicity and mitochondrial integrity in iPSC-CMs", "assay_type": "cell-based", "conditions": "Homo sapiens, Cardiomyocyte; for viability at 0.01 µM / activity at 0.01 µM / viability at 0.1 µM / activity at 0.1 µM / viability at 1 µM / activity at 1 µM / viability at 10 µM / activity at 10 µM / viability at 100 µM / activity at 100 µM: 0.00 µM = 100.00; for viability at 0.1 µM / activity at 0.1 µM: 0.10 µM", "protocol": "Details on cardiomyocyte cell culture are described in detail elsewhere ([Grimm et al. 2015b]; [Sirenko et al. 2013a]). Briefly, tissue-culture treated 384 well plates were gelatinized with 25μL per well of 0.1% (w/v) gelatin in water for 2 h at 37°C and 5% CO2 . Individual vials of cells were thawed for 4 min in a water bath maintained at 37°C. Thawed cells were resuspended in 10ml plating medium containing 1:500 (vol/vol) penicillin/streptomycin solution at room temperature (RT). Live cell counts for each cell suspension were determined by trypan blue staining and cells were further diluted to provide final cell densities of 2×10^5 viable cells/ml. Thus, 5,000 cells suspended in 25μL media were transferred per well after the gelatin solution had been discarded. Cell culture plates were rested for 30 min at RT before they were incubated for 48 h at 37°C and 5% CO2 . Then, a media exchange with 30μL of fresh maintenance medium containing 1:500 (vol/vol) penicillin/streptomycin solution was performed, and cell media were subsequently changed every 48 h for 12 d. On the experiment day, the medium was completely exchanged with either 25μL (for Ca^2+ flux assay) or 40μL (for imaging) of fresh medium.\nCytotoxicity and effects on mitochondrial integrity of various PCBs and PCB metabolites in induced pluripotent stem cell-CMs (iPSC-CMs) were assessed using high-content cellular imaging in ImageXpress® Micro Confocal (Molecular Devices) as detailed in ([Grimm et al. 2015b]). Cells in 40μL maintenance media were treated with 10μL of 5× chemical solutions to provide test chemicals at final assay concentrations ranging from 0.01 to 100μM . […] Next, sample wells were treated with 50μL equilibrated 2× concentrated staining solution (maintenance medium containing Hoechst 33342, 4μg/mL and MitoTracker™ Orange, 0.4μM ). Microplates were then incubated for 15 min at 37°C and 5% CO2 before cells were washed twice with 30μL maintenance medium. All media were aspirated and discarded, and cells were fixed with […] of a 3.7% formaldehyde solution for 15 min at 37°C and 5% […] . Fixed cells were washed 3× with 25μL PBS before image acquisition using the DAPI (Hoechst 33342) and Cy3 (MitoTracker™ Orange) filters at 10× magnification on the ImageXpress® Micro Confocal high-content confocal microscope (Molecular Devices). The multiwavelength cell scoring applications module in MetaXpress® was used to analyze acquired images.\nPhenotypic responses were quantitatively assessed using concentration–response modeling as detailed elsewhere ([Sirenko et al. 2017]). Briefly, phenotypic readouts were normalized to vehicle controls and fit to a four-parameter logistic model in R studio software (version 3.1.1; R Development Core Team). Following EPA guidance on dose–response modeling, a cutoff of one standard deviation across means of vehicle control (i.e., 0.5% vol/vol DMSO in cell culture media) wells was applied to determine the point-of-departure (POD) values ([U.S. EPA 2012]). In the absence of a concentration–response, the highest tested concentration (i.e., 100μM ) was assigned as “no observable adverse effect level.” The concentration–response assessment R script, as well as templates for vehicle and concentration–response data, are available as a supplement to Sirenko et al. ([2017]). The ability of physicochemical properties to predict differences in PODs were evaluated by multiregression and mixed-effects modeling using R.", "key": {"[1]": {"conditions": "1.5 h, 90min, read-out: cm.cam.90min"}, "[2]": {"conditions": "1.5 h, 90min, read-out: cm.mii.90min"}, "[3]": {"conditions": "1.5 h, 90min, read-out: cm.mito.90min"}, "[4]": {"conditions": "1.5 h, 90min, read-out: cm.tc.90min"}, "[5]": {"conditions": "24 h, 24hrs, read-out: cm.cam.24hrs"}, "[6]": {"conditions": "24 h, 24hrs, read-out: cm.mii.24hrs"}, "[7]": {"conditions": "24 h, 24hrs, read-out: cm.mito.24hrs"}, "[8]": {"conditions": "24 h, 24hrs, read-out: cm.tc.24hrs"}}, "note": "Counter-ions that a name gives are not always drawn. Like-named read-outs stand apart in the source and are kept apart here.", "data": [{"compound": "O=S(=O)(O)Oc1cc(Cl)c(-c2cc(Cl)ccc2Cl)cc1Cl", "note": "[4-yl PCB 52 sulfate]", "values": [{"measurement": "viability at 0.01 µM", "setting": "[1]", "result": 106, "unit": "%"}, {"measurement": "activity at 0.01 µM", "setting": "[2]", "result": 103, "unit": "%"}, {"measurement": "activity at 0.01 µM", "setting": "[3]", "result": 106, "unit": "%"}, {"measurement": "viability at 0.01 µM", "setting": "[4]", "result": 106, "unit": "%"}, {"measurement": "viability at 0.1 µM", "setting": "[1]", "result": 93.3, "unit": "%"}, {"measurement": "activity at 0.1 µM", "setting": "[2]", "result": 129, "unit": "%"}, {"measurement": "activity at 0.1 µM", "setting": "[3]", "result": 92.9, "unit": "%"}, {"measurement": "viability at 0.1 µM", "setting": "[4]", "result": 92.8, "unit": "%"}, {"measurement": "viability at 1 µM", "setting": "[1]", "result": 98.7, "unit": "%"}, {"measurement": "activity at 1 µM", "setting": "[2]", "result": 130, "unit": "%"}, {"measurement": "activity at 1 µM", "setting": "[3]", "result": 98.5, "unit": "%"}, {"measurement": "viability at 1 µM", "setting": "[4]", "result": 98.4, "unit": "%"}, {"measurement": "viability at 10 µM", "setting": "[1]", "result": 97.1, "unit": "%"}, {"measurement": "activity at 10 µM", "setting": "[2]", "result": 109, "unit": "%"}, {"measurement": "activity at 10 µM", "setting": "[3]", "result": 96.8, "unit": "%"}, {"measurement": "viability at 10 µM", "setting": "[4]", "result": 97.1, "unit": "%"}, {"measurement": "viability at 100 µM", "setting": "[1]", "result": 0.07, "unit": "%"}, {"measurement": "activity at 100 µM", "setting": "[2]", "result": 31.5, "unit": "%"}, {"measurement": "activity at 100 µM", "setting": "[3]", "result": 0.16, "unit": "%"}, {"measurement": "viability at 100 µM", "setting": "[4]", "result": 0.16, "unit": "%"}, {"measurement": "minimal effective concentration", "setting": "1.5 h, 90min, read-out: cm.cam.90min POD", "result": 10.8, "unit": "µM"}, {"measurement": "minimal effective concentration", "setting": "1.5 h, 90min, read-out: cm.mii.90min POD", "result": 41.2, "unit": "µM"}, {"measurement": "minimal effective concentration", "setting": "1.5 h, 90min, read-out: cm.mito.90min POD", "result": 10.6, "unit": "µM"}, {"measurement": "minimal effective concentration", "setting": "1.5 h, 90min, read-out: cm.tc.90min POD", "result": 10.8, "unit": "µM"}, {"measurement": "viability at 0.01 µM", "setting": "[5]", "result": 95.3, "unit": "%"}, {"measurement": "activity at 0.01 µM", "setting": "[6]", "result": 98.6, "unit": "%"}, {"measurement": "activity at 0.01 µM", "setting": "[7]", "result": 93.3, "unit": "%"}, {"measurement": "viability at 0.01 µM", "setting": "[8]", "result": 96.5, "unit": "%"}, {"measurement": "viability at 0.1 µM", "setting": "[5]", "result": 103, "unit": "%"}, {"measurement": "activity at 0.1 µM", "setting": "[6]", "result": 122, "unit": "%"}, {"measurement": "activity at 0.1 µM", "setting": "[7]", "result": 104, "unit": "%"}, {"measurement": "viability at 0.1 µM", "setting": "[8]", "result": 104, "unit": "%"}, {"measurement": "viability at 1 µM", "setting": "[5]", "result": 104, "unit": "%"}, {"measurement": "activity at 1 µM", "setting": "[6]", "result": 111, "unit": "%"}, {"measurement": "activity at 1 µM", "setting": "[7]", "result": 104, "unit": "%"}, {"measurement": "viability at 1 µM", "setting": "[8]", "result": 104, "unit": "%"}, {"measurement": "viability at 10 µM", "setting": "[5]", "result": 91.5, "unit": "%"}, {"measurement": "activity at 10 µM", "setting": "[6]", "result": 107, "unit": "%"}, {"measurement": "activity at 10 µM", "setting": "[7]", "result": 89.6, "unit": "%"}, {"measurement": "viability at 10 µM", "setting": "[8]", "result": 91.7, "unit": "%"}, {"measurement": "viability at 100 µM", "setting": "[5]", "result": 1.67, "unit": "%"}, {"measurement": "activity at 100 µM", "setting": "[6]", "result": 12.2, "unit": "%"}, {"measurement": "activity at 100 µM", "setting": "[7]", "result": 0.34, "unit": "%"}, {"measurement": "viability at 100 µM", "setting": "[8]", "result": 3.82, "unit": "%"}, {"measurement": "minimal effective concentration", "setting": "24 h, read-out: cm.cam.24hrs POD", "result": 8.2, "unit": "µM"}, {"measurement": "minimal effective concentration", "setting": "24 h, read-out: cm.mii.24hrs POD", "result": 44.6, "unit": "µM"}, {"measurement": "minimal effective concentration", "setting": "24 h, read-out: cm.mito.24hrs POD", "result": 8.28, "unit": "µM"}, {"measurement": "minimal effective concentration", "setting": "24 h, read-out: cm.tc.24hrs POD", "result": 8.44, "unit": "µM"}]}]}
